Assay results reported in the NIST ThermoML archive (doi:10.1021/je060441j).

Assay: xn = mol fraction of the nth substance listed
Conditions: 101 kPa, Liquid

ClC(Cl)Cl [trichloromethane] + CO
mass density [kg/m3]
Conditions | 288.15 K | 293.15 K | 298.15 K | 303.15 K | 308.15 K | 313.15 K
x2 = 0 | 1498.08 | 1488.64 | 1479.15 | 1469.61 | 1460.03 | 1450.41
x2 = 0.0298 | 1487.35 | 1477.93 | 1468.46 | 1458.95 | 1449.38 | 1439.8
x2 = 0.0492 | 1480.27 | 1470.88 | 1461.44 | 1451.95 | 1442.4 | 1432.84
x2 = 0.0724 | 1471.76 | 1462.41 | 1453.01 | 1443.55 | 1434.04 | 1424.49
x2 = 0.0942 | 1463.44 | 1454.14 | 1444.79 | 1435.38 | 1425.89 | 1416.4
x2 = 0.1282 | 1450.19 | 1440.98 | 1431.7 | 1422.37 | 1412.96 | 1403.52
x2 = 0.1586 | 1437.96 | 1428.83 | 1419.63 | 1410.37 | 1401.04 | 1391.68
x2 = 0.2444 | 1401.12 | 1392.24 | 1383.3 | 1374.3 | 1365.22 | 1356.1
x2 = 0.2956 | 1377.44 | 1368.73 | 1359.97 | 1351.14 | 1342.24 | 1333.29
x2 = 0.3383 | 1356.51 | 1347.95 | 1339.33 | 1330.66 | 1321.9 | 1313.09
x2 = 0.398 | 1325.26 | 1316.93 | 1308.55 | 1300.11 | 1291.59 | 1283.02
x2 = 0.4393 | 1302.23 | 1294.08 | 1285.87 | 1277.6 | 1269.26 | 1260.88
x2 = 0.4983 | 1267.1 | 1259.22 | 1251.28 | 1243.28 | 1235.22 | 1227.13
x2 = 0.5505 | 1233.39 | 1225.77 | 1218.09 | 1210.35 | 1202.55 | 1194.71
x2 = 0.6022 | 1197.32 | 1190.01 | 1182.62 | 1175.17 | 1167.65 | 1160.08
x2 = 0.6352 | 1172.94 | 1165.78 | 1158.57 | 1151.3 | 1143.98 | 1136.62
x2 = 0.6999 | 1121.29 | 1114.52 | 1107.71 | 1100.84 | 1093.93 | 1086.96
x2 = 0.75 | 1077.55 | 1071.1 | 1064.61 | 1058.07 | 1051.48 | 1044.85
x2 = 0.7996 | 1030.62 | 1024.5 | 1018.34 | 1012.15 | 1005.91 | 999.622
x2 = 0.8193 | 1011.24 | 1005.11 | 998.988 | 992.86 | 986.761 | 980.633
x2 = 0.8534 | 975.44 | 969.692 | 963.915 | 958.1 | 952.24 | 946.342
x2 = 0.91 | 911.539 | 906.188 | 900.813 | 895.41 | 889.975 | 884.513
x2 = 0.93 | 887.399 | 882.191 | 876.963 | 871.71 | 866.422 | 861.11
x2 = 0.9542 | 857.083 | 852.051 | 847 | 841.927 | 836.829 | 831.705
